Measurements taken from PubChem BioAssay AID1626 (SRMLSC, 2009).

Test system: M. tuberculosis H37Rv growth inhibition
Assay: M. tuberculosis H37Rv growth inhibitors, H37Rv strain (AID 1626)
Details: for IC90: measured here: IC90 against H37Rv; for CC50: measured here: Vero cell cytotoxicity

Q: `Cc1ccccc1-c1cc(C(=O)Nc2nc3c(s2)CCCC3)c2ccccc2n1` was tested. Which IC50 did it give?
A: 4.41 µM

Q: And the IC90?
A: 12.7 µM

Q: And the CC50?
A: > 40 µM

Q: Which IC50 does the source give for `CCOC(=O)CC(=O)Nc1ccc(C(=O)OCC)cc1` here?
A: 10 µM

Q: And the IC90?
A: > 100 µM

Q: For `O=C(Nc1nc2ccccc2[nH]1)c1ccc(Cl)c([N+](=O)[O-])c1`, which IC50 is on record?
A: 13.7 µM

Q: What about the IC90 of the same molecule?
A: > 100 µM

Q: What about the CC50 of the same molecule?
A: > 40 µM

Q: `Cc1cccc(C(=O)Nc2ccc(C(=O)/C=C/c3cccnc3)cc2)c1` was tested. Which IC50 did it give?
A: 6.04 µM

Q: What about the IC90 of the same molecule?
A: 9.07 µM

Q: And the CC50?
A: 22.3 µM

Q: Which IC50 does the source give for `O=c1[nH]c(-c2ccccn2)nc2ccccc12` here?
A: 5.87 µM

Q: And the IC90?
A: 6.72 µM

Q: What about the CC50 of the same molecule?
A: > 40 µM

Q: What does the source list for `OCCN1CCN(c2nc(-c3ccccc3)nc3c2oc2ccccc23)CC1`?
A: IC50: 4.89 µM; IC90: 8.31 µM; CC50: 13.6 µM

Q: What does the source list for `Cc1cc(NC(=O)CSc2nnc(-c3ccccc3)o2)no1`?
A: IC50: 5.7 µM; IC90: 10.1 µM; CC50: > 40 µM

Q: With `COc1cccc(Nc2c3c(nc4c(-c5ccccc5)c(C)nn24)CCC3)c1` as the molecule, how does the IC50 read?
A: 3.4 µM

Q: And the IC90?
A: 5.95 µM

Q: What about the CC50 of the same molecule?
A: > 40 µM

Q: Which results are given for `CCc1ccc(CCC(=O)Nc2ccc(OC)cc2)o1`?
A: IC50: 35.9 µM; IC90: > 100 µM

Q: `CS(=O)(=O)Nc1cccc2cccnc12` was tested. Which IC50 did it give?
A: 11.7 µM

Q: What about the IC90 of the same molecule?
A: 12.9 µM

Q: What about the CC50 of the same molecule?
A: > 40 µM

Q: How did the IC50 turn out when `CCOC(=O)CSc1nc(N)c(C#N)c(-c2ccc(OCC)cc2)c1C#N` was run?
A: 0.472 µM

Q: And the IC90?
A: 1.32 µM

Q: For `CC(C)c1ccc(NC(=O)c2snc3ccc(Cl)cc23)cc1`, which IC50 is on record?
A: 3.89 µM

Q: And the IC90?
A: > 100 µM

Q: What about the CC50 of the same molecule?
A: > 40 µM

Q: How did the IC50 turn out when `O=C(Nc1ccc(-n2cccc2)cc1)C1CC1` was run?
A: < 0.195 µM

Q: And the IC90?
A: > 100 µM

Q: Which IC50 does the source give for `COc1ccc(-c2ccc([C@H]3[C@@H]4C=CCC[C@@]4(C)C(=O)N3Cc3ccccc3)c(F)c2)cc1OC` here?
A: 13 µM

Q: And the IC90?
A: > 100 µM

Q: What about the CC50 of the same molecule?
A: 39.2 µM

Q: What does the source list for `N#C/C(=C(/O)COC(=O)CCC1CCCCC1)c1nc2ccccc2[nH]1`?
A: IC50: 20.2 µM; IC90: 25.1 µM; CC50: > 40 µM

Q: How did the IC50 turn out when `CC(=O)c1cccc(NC(=O)/C=C/c2ccc([N+](=O)[O-])s2)c1` was run?
A: 6.51 µM

Q: What about the IC90 of the same molecule?
A: 57.4 µM

Q: And the CC50?
A: > 40 µM

Q: Which IC50 does the source give for `CCOC(=O)c1cccc(N/C=C/C(=O)c2ccc(OC)c(OC)c2)c1` here?
A: 24 µM

Q: What about the IC90 of the same molecule?
A: > 100 µM

Q: With `COc1ccc(N=C2C(=O)Nc3ccccc32)cc1` as the molecule, how does the IC90 read?
A: > 100 µM

Q: Which IC90 does the source give for `COc1ccc(NC2(c3ccc(Cl)cc3)C(=O)c3ccccc3C2=O)cc1` here?
A: > 100 µM

Q: How did the IC50 turn out when `CCCCc1c(C)c(C#N)c2[nH]c3ccccc3n2c1=O` was run?
A: 23.2 µM

Q: And the IC90?
A: > 100 µM

Q: And the CC50?
A: 22.9 µM

Q: With `CCOc1ccc(NC(=O)CCCc2cc(-c3ccc(OCC)cc3)on2)cc1` as the molecule, how does the IC50 read?
A: 47.1 µM

Q: And the IC90?
A: > 100 µM

Q: Which IC50 does the source give for `CCOC(=O)c1ccc(NC(=O)Cc2coc3cc4c(cc23)CCC4)cc1` here?
A: 6.36 µM

Q: What about the IC90 of the same molecule?
A: > 100 µM

Q: What about the CC50 of the same molecule?
A: > 40 µM

Q: Which results are given for `COc1cnc(-c2ccccn2)nc1Sc1ccccc1`?
A: IC50: 2.66 µM; IC90: 4.96 µM; CC50: 8.62 µM

Q: Which results are given for `O=[N+]([O-])c1cccnc1N1CCC(c2cc(-c3cccc(C(F)(F)F)c3)n[nH]2)CC1`?
A: IC50: 6.34 µM; IC90: 11 µM; CC50: > 40 µM

Q: With `O=C(CCc1nc(-c2cccs2)no1)Nc1cnc2ccccc2c1` as the molecule, how does the IC90 read?
A: > 100 µM

Q: How did the IC50 turn out when `Cc1ccc(Cc2cnc(NC(=O)C3=NCCN3)s2)cc1` was run?
A: 2.07 µM

Q: And the IC90?
A: 7.96 µM

Q: With `Cc1ccc(-c2nnc3sc(CCc4ccccc4)nn23)cc1` as the molecule, how does the IC50 read?
A: 1.63 µM

Q: What about the IC90 of the same molecule?
A: 6.83 µM

Q: With `COC(=O)[C@H](NC(=O)c1cc(-c2ccccc2)nc2ccccc12)c1ccccc1` as the molecule, how does the IC50 read?
A: 1.69 µM

Q: What about the IC90 of the same molecule?
A: 3.37 µM

Q: For `CCOC(=O)Oc1ccc2oc(C)c(C(=O)OCCOC)c2c1`, which IC50 is on record?
A: 26.1 µM

Q: And the IC90?
A: > 100 µM

Q: `Cc1ccc(-c2c[n+](CC(=O)Nc3nc(-c4ccccc4)cs3)c3n2CCC3)cc1` was tested. Which IC50 did it give?
A: 7.81 µM

Q: What about the IC90 of the same molecule?
A: 16.1 µM

Q: What does the source list for `CNc1cc(C(F)(F)F)nc(-c2ccccn2)n1`?
A: IC50: 40.7 µM; IC90: > 100 µM

Q: With `NC1CCN(c2nc3c(cc2F)c(=O)c(C(=O)O)cn3-c2ccc(F)cc2F)C1` (centres undefined) as the molecule, how does the IC50 read?
A: 1.29 µM

Q: And the IC90?
A: 4.21 µM

Q: How did the IC50 turn out when `COC(=O)C(C)Oc1ccc(-c2nccc(-c3cccs3)n2)cc1` (centres undefined) was run?
A: 0.829 µM

Q: And the IC90?
A: 2.74 µM

Q: `COc1ccc(S(=O)(=O)Oc2ccc3c(c2)O/C(=C\c2cccnc2)C3=O)cc1` was tested. Which IC50 did it give?
A: 2.34 µM

Q: What about the IC90 of the same molecule?
A: 19.4 µM

Q: What does the source list for `CCCCc1ccc(NC(=O)C2CCCO2)cc1` (centres undefined)?
A: IC50: 1.71 µM; IC90: > 100 µM

Q: For `CCCc1cc(-c2nc(-c3ccc(Br)cc3)cs2)ccn1`, which IC50 is on record?
A: 5.68 µM

Q: And the IC90?
A: 10.4 µM

Q: For `CCc1ccc(-c2nn(-c3ccccc3)cc2CSC(=N)N)cc1`, which IC50 is on record?
A: 6.73 µM

Q: And the IC90?
A: 10.7 µM

Q: What about the CC50 of the same molecule?
A: 14 µM

Q: Which IC50 does the source give for `COc1ccc(/C=c2\s/c(=C\C(=O)C(C)(C)C)[nH]c2=O)cc1O` here?
A: 5.62 µM

Q: What about the IC90 of the same molecule?
A: 7.63 µM

Q: What about the CC50 of the same molecule?
A: 25.3 µM

Q: Which IC50 does the source give for `CC(C)NCC(O)Cn1c2c(c3ccccc31)CCc1c-2cnn1-c1ccccc1` (centres undefined) here?
A: 10.1 µM

Q: And the IC90?
A: 13.6 µM

Q: And the CC50?
A: 7.97 µM

Q: For `Cc1ccccc1-n1nnc2c(=O)oc3ccccc3c21`, which IC50 is on record?
A: 4.48 µM

Q: And the IC90?
A: > 100 µM

Q: Which results are given for `O=[N+]([O-])c1cc(S(=O)(=O)C(F)(F)F)ccc1Sc1nc2ccccc2s1`?
A: IC50: 0.699 µM; IC90: 0.781 µM; CC50: 12.6 µM
